The values below come from ChEMBL document CHEMBL1133892 (Bioorg Med Chem Lett, 2001).

The target of test [1] is T1, Prostaglandin E2 receptor EP2 subtype (Mus musculus, UniProt Q62053). Kind of test: Effective concentration which increases intracellular c-AMP production in mouse Prostanoid EP2 receptor. The class given is functional, cell-based.
Test [2] addresses Prostaglandin E2 receptor EP4 subtype (Mus musculus, UniProt P32240). Kind of test: Binding affinity towards mouse Prostanoid EP4 receptor in CHO cells. The class given is cell-based.
The target in test [3] is T2, Prostacyclin receptor (Homo sapiens, UniProt P43119). The test can be described thus: Effective concentration which increases intracellular c-AMP production in human Prostanoid IP receptor. The class given is functional, cell-based.
Test [4] has as its target T1, Prostaglandin E2 receptor EP2 subtype. Kind of test: Binding affinity towards mouse Prostanoid EP2 receptor expressed in CHO cells. Type of test: cell-based.
Test [5] has as its system Rattus norvegicus. Kind of test: Suppression of uterine motility for the 5-min period before and after the commencenment of intravenous administration to anesthetized pregnant rats. Type of test: functional.
The subject of test [6] is Rattus norvegicus. The test can be described thus: Evaluated for its maximal response of hypotensive effect at 1000 ug/kg, iv. The class given is functional.
The target in test [7] is T3, Prostaglandin E2 receptor EP1 subtype (Mus musculus, UniProt P35375).
T3 sequence (P35375 whole entry): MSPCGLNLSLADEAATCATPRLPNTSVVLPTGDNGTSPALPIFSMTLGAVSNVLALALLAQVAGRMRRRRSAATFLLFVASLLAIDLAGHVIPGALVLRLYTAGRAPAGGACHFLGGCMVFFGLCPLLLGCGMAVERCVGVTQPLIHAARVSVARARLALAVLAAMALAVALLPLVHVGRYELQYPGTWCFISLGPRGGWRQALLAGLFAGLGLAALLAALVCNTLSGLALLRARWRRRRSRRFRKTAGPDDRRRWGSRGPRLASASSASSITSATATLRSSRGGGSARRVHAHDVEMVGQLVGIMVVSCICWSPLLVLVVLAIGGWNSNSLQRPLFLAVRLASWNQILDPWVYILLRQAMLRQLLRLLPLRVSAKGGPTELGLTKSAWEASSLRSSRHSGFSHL
Kind of test: Binding affinity towards mouse Prostanoid EP1 receptor in CHO cells. Type of test: cell-based.

In test [8] the target is T2, Prostacyclin receptor. The test can be described thus: Binding affinity towards human Prostanoid IP receptor in CHO cells. The class given is cell-based.
The target in test [9] is T4, Prostaglandin E2 receptor EP3 subtype (Mus musculus, UniProt P30557).
T4 sequence (P30557 whole entry): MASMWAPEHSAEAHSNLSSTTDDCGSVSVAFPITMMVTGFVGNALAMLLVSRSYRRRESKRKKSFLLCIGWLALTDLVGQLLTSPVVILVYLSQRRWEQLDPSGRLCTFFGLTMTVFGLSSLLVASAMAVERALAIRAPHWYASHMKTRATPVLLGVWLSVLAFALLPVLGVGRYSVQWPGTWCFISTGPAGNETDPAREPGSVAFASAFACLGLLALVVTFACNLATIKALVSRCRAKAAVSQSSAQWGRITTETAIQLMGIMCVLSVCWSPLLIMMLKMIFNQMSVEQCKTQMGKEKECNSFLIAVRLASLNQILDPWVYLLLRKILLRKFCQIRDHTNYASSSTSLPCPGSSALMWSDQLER
Kind of test: Binding affinity towards mouse Prostanoid EP3 receptor in CHO cells. Type of test: cell-based.

For test [10], the target named is T1, Prostaglandin E2 receptor EP2 subtype. Kind of test: Effective concentration which increases intracellular c-AMP production in mouse EP2- receptor. Type of test: functional, cell-based.
In test [11] the target is Prostaglandin E2 receptor EP2 subtype (Homo sapiens, UniProt P43116). Kind of test: Compound was evaluated for its competitive binding affinity towards human Prostanoid EP2 receptor in CHO cells expressing prostanoid receptor. Type of test: cell-based.
Test [12] has as its system Rattus norvegicus. Kind of test: Evaluated for its maximal response of hypotensive effect at 300 ug/kg, iv. Type of test: functional.

Usually EC50 stands for the concentration giving half of the maximal effect. Higher therefore signals a less potent agent. One may read the Ki as a dissociation constant, usually derived from enzyme kinetics or from competition with a known ligand. Low values mean a stronger hold on the target, high ones a looser hold on the target. In general, ED50 refers to the dose at which the effect has come halfway, by size or by number of responders. A lower ED50 goes with greater potency.

Structures are written as SMILES.

T1 sequence (Q62053 whole entry): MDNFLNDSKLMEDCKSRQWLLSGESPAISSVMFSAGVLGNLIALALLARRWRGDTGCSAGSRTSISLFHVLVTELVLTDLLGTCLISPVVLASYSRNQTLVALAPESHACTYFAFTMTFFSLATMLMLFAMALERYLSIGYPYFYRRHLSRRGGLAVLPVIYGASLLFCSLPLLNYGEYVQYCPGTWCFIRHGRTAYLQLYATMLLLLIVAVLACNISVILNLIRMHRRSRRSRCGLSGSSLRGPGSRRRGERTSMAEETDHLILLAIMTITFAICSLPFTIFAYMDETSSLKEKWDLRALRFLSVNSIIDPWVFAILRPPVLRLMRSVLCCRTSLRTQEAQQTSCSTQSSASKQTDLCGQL
Sequence of Prostaglandin E2 receptor EP4 subtype (P32240 whole entry): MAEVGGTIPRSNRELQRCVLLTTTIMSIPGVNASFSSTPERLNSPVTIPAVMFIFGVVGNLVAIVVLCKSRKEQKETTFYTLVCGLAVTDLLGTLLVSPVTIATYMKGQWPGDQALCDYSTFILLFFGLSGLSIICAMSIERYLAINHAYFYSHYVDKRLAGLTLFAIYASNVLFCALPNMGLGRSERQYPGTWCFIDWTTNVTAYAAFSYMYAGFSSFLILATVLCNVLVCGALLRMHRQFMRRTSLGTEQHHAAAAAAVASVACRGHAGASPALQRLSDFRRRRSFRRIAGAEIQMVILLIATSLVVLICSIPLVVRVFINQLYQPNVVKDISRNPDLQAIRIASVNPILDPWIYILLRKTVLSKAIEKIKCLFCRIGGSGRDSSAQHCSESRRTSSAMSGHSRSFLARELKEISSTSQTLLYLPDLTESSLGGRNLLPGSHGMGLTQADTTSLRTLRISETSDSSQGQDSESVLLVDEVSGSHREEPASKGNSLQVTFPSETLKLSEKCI
T2 sequence (P43119 whole entry): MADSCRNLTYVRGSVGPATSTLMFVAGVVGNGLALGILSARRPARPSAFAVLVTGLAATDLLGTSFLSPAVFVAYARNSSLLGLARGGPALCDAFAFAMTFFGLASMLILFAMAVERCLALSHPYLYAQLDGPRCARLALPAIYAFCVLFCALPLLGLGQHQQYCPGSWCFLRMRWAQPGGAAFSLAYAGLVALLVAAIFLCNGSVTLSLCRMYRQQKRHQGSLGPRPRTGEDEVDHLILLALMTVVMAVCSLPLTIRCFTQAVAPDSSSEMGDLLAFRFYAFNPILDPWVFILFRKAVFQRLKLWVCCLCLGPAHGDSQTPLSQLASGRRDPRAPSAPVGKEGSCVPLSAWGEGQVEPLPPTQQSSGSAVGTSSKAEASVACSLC
Sequence of Prostaglandin E2 receptor EP2 subtype (Homo sapiens, UniProt P43116) (P43116 whole entry): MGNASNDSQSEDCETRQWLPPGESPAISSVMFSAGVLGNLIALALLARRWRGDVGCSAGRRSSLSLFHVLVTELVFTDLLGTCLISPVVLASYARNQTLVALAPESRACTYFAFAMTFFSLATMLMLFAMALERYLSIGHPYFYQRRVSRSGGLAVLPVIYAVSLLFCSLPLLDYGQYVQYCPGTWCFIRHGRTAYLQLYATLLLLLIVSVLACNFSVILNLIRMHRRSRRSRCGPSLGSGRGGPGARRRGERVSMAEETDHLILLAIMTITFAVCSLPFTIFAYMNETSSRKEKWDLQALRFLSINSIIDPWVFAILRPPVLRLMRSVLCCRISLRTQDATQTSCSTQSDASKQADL

Take `CCCC1([C@@H](O)C/C=C/C2[C@H](O)CC(=O)[C@@H]2C/C=C/CCCC(=O)O)CCC1` (some centres undefined): the 50% effective concentration (EC50) is 43 nM in test [1] and more than 10000 nM on Prostacyclin receptor [3]. Besides, the values for the Ki in [2], in test [4] and in [7] were more than 10000 nM, 92 nM and more than 10000 nM, respectively. In addition, the ED50 with Rattus norvegicus [5] came out at 0.275 mg/kg. In the test with Rattus norvegicus [6], this compound displayed a Max response of 22.8 delta mmHg.

In test [1], `CCCCCC1([C@@H](O)C/C=C/[C@H]2[C@H](O)CC(=O)[C@@H]2C/C=C\CCCC(=O)O)CCC1` returned a concentration for a half-maximal effect (EC50) of 130 nM. For the same compound, the Ki was 2100 nM in test [2]; 20 nM in [4]; more than 10000 nM at Prostacyclin receptor [8]; 830 nM in test [9]; 1600 nM in test [7].

For `CCCC1([C@@H](O)C/C=C/[C@H]2[C@H](O)CC(=O)[C@@H]2C/C=C\CCCC(=O)O)CCC1`, in test [1], the concentration for a half-maximal effect (EC50) came out at 220 nM. The Ki is more than 10000 nM in test [2]; 330 nM in test [4]; more than 10000 nM on Prostacyclin receptor [8]; 1200 nM in [9]; more than 10000 nM in [7].

As for `CCCCC1([C@@H](O)C/C=C/[C@H]2[C@H](O)CC(=O)[C@@H]2C/C=C\CCCC(=O)O)CCC1`, in [1], the EC50 worked out at 71 nM. Also, the Ki in [2] is more than 10000 nM; in test [4] it was 43 nM; at Prostacyclin receptor [8] it was more than 10000 nM; in test [9] it was 2000 nM; in [7], 780 nM.

The compound `CC(C)CC1([C@@H](O)C/C=C/[C@H]2[C@H](O)CC(=O)[C@@H]2C/C=C\CCCC(=O)O)CCC1` yielded an EC50 in [1] of 45 nM. Further, the Ki in test [2] was more than 10000 nM; in test [4], 40 nM; on Prostacyclin receptor [8], more than 10000 nM; in [7] it was more than 10000 nM.

For `CCCC1([C@@H](O)C/C=C/C2[C@H](O)CC(=O)[C@@H]2CCCCCCC(=O)OC)CCC1` (some centres undefined), the EC50 in test [10] came out at 33 nM; at Prostacyclin receptor [3], 37 nM. Further, the Ki is more than 10000 nM in test [2]; 2400 nM in test [4]; more than 10000 nM on Prostacyclin receptor [8]; more than 10000 nM in test [9]; more than 10000 nM in test [7].

The compound `CCC1([C@@H](O)C/C=C/[C@@H]2[C@@H](C/C=C\CCCC(=O)O)[C@@H](Cl)C[C@H]2O)CCC1` returned an EC50 in test [1] of 39 nM. The inhibition constant (Ki) in test [2] is more than 10000 nM; in [4] it was 13 nM; at Prostacyclin receptor [8] it was more than 10000 nM; in test [9] it was more than 10000 nM; in test [7], more than 10000 nM.

Turning to `CCCC1([C@@H](O)C/C=C/C2[C@H](O)CC(=O)[C@@H]2CC#CCCCC(=O)O)CCC1` (some centres undefined), the inhibition constant (Ki) in test [2] is more than 10000 nM; in test [4], 1100 nM; in [9] it was more than 10000 nM; in test [7], more than 10000 nM.

In turn, `CCCC1([C@@H](O)C/C=C/[C@H]2[C@H](O)CC(=O)[C@@H]2C/C=C\CCCC(=O)O)CCCC1` came in with an EC50 in [1] of 580 nM. Besides, the Ki in [2] was more than 10000 nM; in test [4], 370 nM; on Prostacyclin receptor [8], more than 10000 nM; in test [7], more than 10000 nM.

In test [1], `CCCC1([C@@H](O)C/C=C/[C@H]2[C@H](O)CC(=O)[C@@H]2C/C=C\CCCC(=O)O)CCCCC1` returned an EC50 of more than 10000 nM. In addition, the figures for the Ki in [2], in test [4] and in test [7] were more than 10000 nM, 3300 nM and more than 10000 nM, respectively.

Turning to `CCC1([C@@H](O)C/C=C/[C@@H]2[C@@H](C/C=C\CCCC(=O)O)[C@H](Cl)C[C@H]2O)CCC1`, the Ki in [11] is 0.74 nM; in test [2] it was more than 10000 nM; in test [4], 2.2 nM; at Prostacyclin receptor [8], more than 10000 nM; in [9], more than 10000 nM; in [7], 3400 nM. In test [1], the EC50 is 2.8 nM. Also, the ED50 with Rattus norvegicus [5] worked out at 0.0329 mg/kg. In addition, the Max response with Rattus norvegicus [12] worked out at 24.4 delta mmHg.

In test [1], `CCC1([C@@H](O)C/C=C/[C@@H]2[C@@H](C/C=C\CCCC(=O)O)CC[C@H]2O)CCC1` came in with an EC50 of 1400 nM. The Ki in [2] is more than 10000 nM; in test [4], 11 nM; at Prostacyclin receptor [8], more than 10000 nM; in [9], more than 10000 nM; in [7], 5100 nM.

For the compound `CCCC1([C@@H](O)C/C=C/C2[C@H](O)CC(=O)[C@@H]2CCc2ccc(C(=O)O)cc2)CCC1` (some centres undefined), the EC50 in test [1] was 54 nM; on Prostacyclin receptor [3], more than 10000 nM. Moreover, the figures for the inhibition constant Ki in test [2], in test [4] and in test [7] were more than 10000 nM, 25 nM and more than 10000 nM, respectively.

As for `CCC1([C@@H](O)C/C=C/[C@H]2[C@H](O)CC(=O)[C@@H]2C/C=C\CCCC(=O)O)CCC1`, it took 11 nM to reach a half-maximal effect in [1] (EC50). In addition, the Ki in test [2] is more than 10000 nM; in test [4] it was 30 nM; at Prostacyclin receptor [8] it was more than 10000 nM; in test [7] it was more than 10000 nM.

On to `CCCC1([C@@H](O)C/C=C/C2[C@H](O)CC(=O)[C@@H]2CCCCCCC(=O)O)CCC1` (some centres undefined), for which the 50% effective concentration (EC50) in [1] amounted to 32 nM; at Prostacyclin receptor [3], 25 nM. Moreover, the Ki in test [2] was more than 10000 nM; in test [4], 73 nM; at Prostacyclin receptor [8] it was 870 nM; in [9], more than 10000 nM; in test [7], more than 10000 nM. It took a dose of 0.455 mg/kg to reach the 50% effect level in the test with Rattus norvegicus [5] (ED50). Also, the Max response in the test on Rattus norvegicus [6] was 39.8 delta mmHg.

Turning to `CCCCC[C@@H](O)/C=C/[C@H]1[C@H](O)CC(=O)[C@@H]1C/C=C\CCCC(=O)O`, the concentration giving a half-maximal response (EC50) in test [1] amounted to 2.1 nM; on Prostacyclin receptor [3] it was 260 nM. In addition, the inhibitory constant (Ki) in test [4] was 38 nM; at Prostacyclin receptor [8], more than 10000 nM; in test [9], 5 nM; in test [7], 18 nM. This compound also returned a 50% effective dose (ED50) in the test with Rattus norvegicus [5] of more than 1.8 mg/kg.

For the compound `CCCCCC(O)/C=C/[C@H]1[C@H](O)CC(=O)[C@@H]1CCCCCCC(=O)O` (single isomer, unassigned) [ALPROSTADIL], the 50% effective concentration (EC50) in [1] was 2.6 nM; on Prostacyclin receptor [3] it was 1.8 nM. In addition, the inhibitory constant (Ki) is 3.3 nM in [2]; 87 nM in test [4]; 150 nM at Prostacyclin receptor [8]; 5 nM in test [9]; 100 nM in test [7].
